Measured values: BindingDB's records for doi:10.1021/jm00039a013 (Pfizer, 1994)

Assay: Inhibitory activity against acetylcholinesterase in mice at the dose of 4.8 mg/kg via intraperitoneal administration

Work on `CCCCCCCNC(=O)Oc1ccc2c(c1)[C@]1(C)CCN(C)[C@@H]1N2C` [(3aS,8aR)-1,3a,8-trimethyl-1H,2H,3H,3aH,8H,8aH-pyrrolo[2,3-b]indol-5-yl N-heptylcarbamate] yielded an IC50 of 148 nM.
